Among the test systems are U251 CNS; M14 melanoma; DU-145 prostate; SNB-19 CNS; MDA-MB-435; SF-268 CNS; HL-60(TB) leukemia; SF-295 CNS; MOLT-4 leukemia; LOX IMVI melanoma.
Common to all, as to test: DTP human tumour cell line panel, 48 h

Each structure is given as a SMILES string. “And” between values parts separate entries of the source, which are not always exact repeats. Equal entries are not always repeated.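 All cell lines were grown in 96-well plates and treated with compound for 48 hours. At the GI50, growth is halved. TGI: concentration producing complete growth inhibition.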

Take `CCOc1ccc2nc(-c3ccc(O)cc3)sc2c1`: the concentration for total growth inhibition (TGI) (as a rule, the concentration at which net growth stops) in the experiment on U251 CNS is greater than 100 µM; with M14 melanoma, greater than 100 µM; in the experiment with DU-145 prostate it was greater than 100 µM; with SNB-19 CNS it was greater than 100 µM; in the experiment with MDA-MB-435, greater than 100 µM; in the experiment with SF-268 CNS it was 91.3 µM. For the same molecule, the total growth inhibition concentration (TGI) in the experiment on HL-60(TB) leukemia was 8.81 µM; with SF-295 CNS, 61.6 µM; in the experiment on MOLT-4 leukemia, greater than 100 µM; in the experiment with LOX IMVI melanoma it was greater than 100 µM.
On to `O=C1OC(c2ccccc2)=N/C1=C\c1cccnc1`, for which the TGI in the experiment with U251 CNS, in the experiment with M14 melanoma, with SNB-19 CNS, in the experiment with MDA-MB-435, in the experiment with SF-268 CNS and in the experiment with HL-60(TB) leukemia was greater than 100 µM each time. The TGI in the experiment with SF-295 CNS and in the experiment on MOLT-4 leukemia was greater than 100 µM in each case.
With `C/C(CC/C(C)=N/O)=N\O`, the total growth inhibition concentration (TGI) in the experiment on U251 CNS, in the experiment on M14 melanoma, with DU-145 prostate, in the experiment on SNB-19 CNS, with MDA-MB-435 and in the experiment with SF-268 CNS was greater than 100 µM each time. The TGI in the experiment on HL-60(TB) leukemia, in the experiment on SF-295 CNS, with MOLT-4 leukemia and in the experiment with LOX IMVI melanoma was greater than 100 µM each time.
In the case of `CS(=O)(=O)c1ccc(/C=N/NC(N)=S)cc1`, the TGI in the experiment on U251 CNS, with M14 melanoma, in the experiment on DU-145 prostate, with SNB-19 CNS, in the experiment with MDA-MB-435 and with SF-268 CNS was greater than 100 µM each time. Further, the total growth inhibition concentration (TGI) in the experiment on HL-60(TB) leukemia, in the experiment on SF-295 CNS, with MOLT-4 leukemia and in the experiment with LOX IMVI melanoma was greater than 100 µM each time.
Regarding `O=C1OC[C@@H]2[C@@H](O)CCCCCN12`, the TGI in the experiment on U251 CNS, in the experiment on DU-145 prostate, with SNB-19 CNS, in the experiment with MDA-MB-435, in the experiment on HL-60(TB) leukemia and in the experiment on SF-295 CNS was greater than 100 µM each time. The TGI in the experiment on MOLT-4 leukemia and in the experiment with LOX IMVI melanoma was greater than 100 µM throughout.
For `COc1cc2c(cc1OC)-c1cc3ccccc3c[n+]1CC2`, the TGI in the experiment with U251 CNS, in the experiment on M14 melanoma, in the experiment on DU-145 prostate, in the experiment with SNB-19 CNS, in the experiment on MDA-MB-435 and in the experiment with SF-268 CNS was greater than 100 µM in each case. The total growth inhibition concentration (TGI) in the experiment on SF-295 CNS, in the experiment on MOLT-4 leukemia and in the experiment on LOX IMVI melanoma was greater than 100 µM throughout.
With `CCS(=O)(=O)N1CCC(C(C)n2c(C)c(C(=O)NCc3c(OC)cc(C)[nH]c3=O)c3ccccc32)CC1` (stereo unspecified), the GI50 (usually the concentration that inhibits growth by half) was greater than 100000 nM in the experiment on U251 CNS; greater than 100 µM in the experiment with DU-145 prostate; greater than 100000 nM in the experiment on MDA-MB-435; greater than 100000 nM with SF-268 CNS; greater than 100000 nM in the experiment on SF-295 CNS; greater than 100000 nM in the experiment on LOX IMVI melanoma. Further, the total growth inhibition concentration (TGI) in the experiment with U251 CNS, with DU-145 prostate, in the experiment with MDA-MB-435, with SF-268 CNS, in the experiment on SF-295 CNS and in the experiment on LOX IMVI melanoma was greater than 100 µM each time.
On to `COC1=C2CC(C)CC(OC)C(O)C(C)/C=C(\C)C(OC(N)=O)C(OC)/C=C\C=C(/C)C(=O)NC(=C(C=NC(C)(C)C)C1=O)C2=O` (stereo unspecified), for which the total growth inhibition concentration (TGI) in the experiment on U251 CNS is 21.9 µM; in the experiment on SNB-19 CNS, 26.9 µM; in the experiment on SF-268 CNS, 37.4 µM; with HL-60(TB) leukemia it was 1.86 µM; in the experiment on SF-295 CNS it was 31.7 µM; in the experiment on MOLT-4 leukemia, 12.1 µM. Also, the concentration for total growth inhibition (TGI) with LOX IMVI melanoma was 22.3 µM.
`CC[C@]1(O)C[C@H]2CN(CCc3c([nH]c4ccccc34)[C@@](C(=O)OC)(c3cc4c(cc3OC)N(C=O)[C@H]3[C@@](O)(C(=O)OC)[C@H](OC(C)=O)[C@]5(CC)C=CCN6CC[C@]43[C@@H]65)C2)C1`: the TGI with U251 CNS is 1.66 µM and 2.53 µM and 16.6 µM; in the experiment on SNB-19 CNS, 43.1 µM and 17.7 µM; in the experiment with SF-268 CNS, 8.13 µM and 31.2 µM and 79.2 µM; in the experiment with SF-295 CNS it was 0.141 µM and 0.536 µM; with MOLT-4 leukemia, 7.59 µM and 48 µM and 23.3 µM. Moreover, the GI50 in the experiment with MDA-MB-435 is 12.2 nM.
Consider `Cc1ccccc1C(=O)c1c(O)c2c(c(O)c1Br)CCCC2`, for which the total growth inhibition concentration (TGI) amounted to 31.5 µM with U251 CNS; 29.1 µM with M14 melanoma; 54.7 µM with SNB-19 CNS; 29 µM in the experiment with SF-268 CNS; 23 µM with HL-60(TB) leukemia; 47.9 µM with SF-295 CNS. This molecule returned a TGI with MOLT-4 leukemia of 31.4 µM.
Consider `O=[N+]([O-])c1nc(-c2ccccn2)[nH]c1[N+](=O)[O-]`, for which the TGI with U251 CNS, with M14 melanoma, with SNB-19 CNS, in the experiment on SF-268 CNS, in the experiment with HL-60(TB) leukemia and with SF-295 CNS was greater than 100 µM throughout. The total growth inhibition concentration (TGI) with MOLT-4 leukemia and with LOX IMVI melanoma was greater than 100 µM in each case.
For `CCOC(=O)NC(Nc1ncccn1)(C(F)(F)F)C(F)(F)F`, the TGI in the experiment with U251 CNS, in the experiment on M14 melanoma, in the experiment with DU-145 prostate, with SNB-19 CNS, in the experiment on MDA-MB-435 and in the experiment on SF-268 CNS was greater than 100 µM in each case. Moreover, the total growth inhibition concentration (TGI) with HL-60(TB) leukemia, in the experiment on MOLT-4 leukemia and in the experiment on LOX IMVI melanoma was greater than 100 µM each time.
`NC(=O)c1nnc2ccc(F)cc2c1N`: the TGI in the experiment with U251 CNS, in the experiment with M14 melanoma, in the experiment on DU-145 prostate, in the experiment on SNB-19 CNS, with MDA-MB-435 and in the experiment with SF-268 CNS was greater than 100 µM throughout. The total growth inhibition concentration (TGI) in the experiment on HL-60(TB) leukemia, with SF-295 CNS, in the experiment with MOLT-4 leukemia and in the experiment with LOX IMVI melanoma was greater than 100 µM in each case.
Regarding `Nc1ncnc2c1ncn2C1OC(COP(=O)(O)O)C(O)C1O` (stereo unspecified), the TGI with U251 CNS, in the experiment on SNB-19 CNS, in the experiment on SF-268 CNS, in the experiment with HL-60(TB) leukemia, in the experiment with SF-295 CNS and in the experiment with MOLT-4 leukemia was greater than 50 µM in each case. Moreover, the TGI in the experiment with LOX IMVI melanoma was greater than 50 µM.
As to `CC1(C)CCC[C@@]2(C)C1CCC1(C)C(CCc3ccoc3)/C(=C/OS(=O)(=O)O)CCC12` (stereo partly specified) (tested in a mixture with another compound), the TGI with U251 CNS, with M14 melanoma, in the experiment on SNB-19 CNS, with SF-268 CNS, with HL-60(TB) leukemia and with SF-295 CNS was greater than 100 µM throughout. The TGI in the experiment with MOLT-4 leukemia is 79.7 µM; in the experiment on LOX IMVI melanoma it was greater than 100 µM.
`C/C=C/[C@H]1O[C@@](O)([C@@H](C)[C@H](O)[C@H](C)[C@H]2OC(=O)/C(OC)=C/C(C)=C/[C@@H](C)[C@@H](O)[C@@H](CC)[C@@H](O)[C@H](C)C/C(C)=C/C=C/[C@@H]2OC)C[C@H](OC2CC(O)C(O)C(C)O2)[C@@H]1C` (stereo partly specified): the TGI was 11.4 µM with U251 CNS; less than 0.0075 µM in the experiment on M14 melanoma; 15.1 µM with DU-145 prostate; 15.7 µM in the experiment on SNB-19 CNS; 8.87 µM in the experiment on MDA-MB-435; 25.6 µM in the experiment with SF-268 CNS. Besides, the TGI in the experiment with HL-60(TB) leukemia is less than 0.0075 µM; in the experiment on SF-295 CNS, 10.4 µM; in the experiment with MOLT-4 leukemia, less than 0.0075 µM.
As to `C=C(CN(C)C)C(=O)c1ccccc1C`, the concentration for total growth inhibition (TGI) in the experiment on U251 CNS is greater than 100 µM; in the experiment on M14 melanoma, 33.8 µM; in the experiment with DU-145 prostate it was greater than 100 µM; in the experiment on SNB-19 CNS, greater than 100 µM; with SF-268 CNS, greater than 100 µM; in the experiment on HL-60(TB) leukemia, 15.9 µM. Moreover, the TGI was greater than 100 µM in the experiment on SF-295 CNS, 35.7 µM in the experiment with MOLT-4 leukemia and greater than 100 µM in the experiment with LOX IMVI melanoma.
In the case of `O=C(Nc1cccc(-n2ccc3c(NC(=O)c4ccccc4)nccc32)c1)c1ccc(N2CCOCC2)c(C(F)(F)F)c1`, the GI50 was 47.4 nM in the experiment with U251 CNS; 38.6 nM in the experiment on M14 melanoma; 58 nM in the experiment with SNB-19 CNS; 19.1 nM with MDA-MB-435; 62.5 nM in the experiment with SF-268 CNS; 39.3 nM with HL-60(TB) leukemia. Further, the 50% growth inhibitory concentration (GI50) in the experiment on SF-295 CNS is 30.6 nM; with MOLT-4 leukemia, 128 nM; in the experiment on LOX IMVI melanoma, 42.7 nM. Moreover, the TGI with U251 CNS is greater than 100 µM; with M14 melanoma, greater than 100 µM; in the experiment on SNB-19 CNS, greater than 100 µM; with MDA-MB-435 it was 0.046 µM; in the experiment with SF-268 CNS it was greater than 100 µM; with HL-60(TB) leukemia, 4.82 µM. The TGI was 0.49 µM in the experiment with SF-295 CNS, greater than 100 µM with MOLT-4 leukemia and greater than 100 µM in the experiment with LOX IMVI melanoma.
As for `O=C(O)c1cc2ccccc2c(N=Nc2ccccc2)c1O`, the total growth inhibition concentration (TGI) in the experiment on U251 CNS is 45.1 µM; with M14 melanoma, 37.9 µM; in the experiment with DU-145 prostate, 29.7 µM; in the experiment on SNB-19 CNS it was 79.6 µM; in the experiment on MDA-MB-435, 35.5 µM; with SF-268 CNS it was greater than 100 µM. Besides, the concentration for total growth inhibition (TGI) in the experiment on HL-60(TB) leukemia was 33.1 µM; in the experiment with SF-295 CNS it was 25.9 µM; in the experiment with MOLT-4 leukemia it was greater than 100 µM.
In the case of `O=C(O)c1ccccc1NC(c1ccccc1)c1ccc2cccnc2c1O` (stereo unspecified), the concentration for total growth inhibition (TGI) in the experiment on U251 CNS was 21.8 µM; in the experiment on M14 melanoma it was 38.8 µM; with DU-145 prostate, greater than 100 µM; in the experiment on SNB-19 CNS, greater than 100 µM; in the experiment with MDA-MB-435, greater than 66.9 µM; in the experiment with SF-268 CNS it was greater than 43.5 µM. The TGI with HL-60(TB) leukemia is 8.22 µM; with SF-295 CNS, greater than 100 µM; in the experiment with MOLT-4 leukemia, 34 µM; in the experiment on LOX IMVI melanoma, 43.2 µM.
As for `Fc1ccc2[nH]cc(-c3nc(-c4c[nH]c5ncccc45)cs3)c2c1`, in the experiment on MDA-MB-435, the GI50 was 12500 nM and the total growth inhibition concentration (TGI) was greater than 100 µM.
